Assay results published in ChEMBL document CHEMBL5385847, “Design, synthesis and biological evaluation of a new class of 7H-pyrrolo[2,3-d]pyrimidine derivatives as Mps1 inhibitors for the treatment of breast cancer” (Eur J Med Chem, 2023).
Activity calls are given as the source filed them. The rule behind the calls is not given here.

Legend:
[1] = molecular target: T1, Dual specificity protein kinase TTK (Homo sapiens, UniProt P33981); test: Inhibition of Mps1 (unknown origin) incubated for 120 mins in presence of substrate/ATP by ADP-Glo assay
T1 sequence (P33981 whole entry): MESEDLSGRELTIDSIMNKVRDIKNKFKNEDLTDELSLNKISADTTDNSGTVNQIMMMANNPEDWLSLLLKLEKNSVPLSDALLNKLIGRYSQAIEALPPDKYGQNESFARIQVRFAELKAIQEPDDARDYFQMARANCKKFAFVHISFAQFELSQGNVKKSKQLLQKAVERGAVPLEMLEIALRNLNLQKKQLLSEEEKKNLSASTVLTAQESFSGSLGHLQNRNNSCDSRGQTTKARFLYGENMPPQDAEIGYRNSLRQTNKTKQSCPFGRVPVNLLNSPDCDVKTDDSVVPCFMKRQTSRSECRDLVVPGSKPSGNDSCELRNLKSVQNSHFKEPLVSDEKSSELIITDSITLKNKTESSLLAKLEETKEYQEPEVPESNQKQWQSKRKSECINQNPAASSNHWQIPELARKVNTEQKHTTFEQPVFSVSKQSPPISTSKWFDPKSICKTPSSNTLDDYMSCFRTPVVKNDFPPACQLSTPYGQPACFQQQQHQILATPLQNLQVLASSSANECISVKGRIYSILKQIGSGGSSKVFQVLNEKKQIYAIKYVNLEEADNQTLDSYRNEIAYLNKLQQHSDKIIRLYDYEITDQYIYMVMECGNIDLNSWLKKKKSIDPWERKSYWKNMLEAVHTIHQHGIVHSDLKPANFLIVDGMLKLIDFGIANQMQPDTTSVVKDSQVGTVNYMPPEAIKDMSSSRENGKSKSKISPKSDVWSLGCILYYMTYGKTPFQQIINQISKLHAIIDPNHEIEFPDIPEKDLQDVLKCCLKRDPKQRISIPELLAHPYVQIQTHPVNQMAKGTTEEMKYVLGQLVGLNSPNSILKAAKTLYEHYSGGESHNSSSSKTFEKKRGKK

[2] = tested on: OVCAR-3; test: Antiproliferative activity against human OVCAR-3 cells assessed as inhibition of cell viability by MTT assay; assay type: functional, cell-based
[3] = Antitumor activity against mouse 4T1-Luc cells xenografted in BALB/C mouse assessed as reduction in mean tumor weight at 30 mg/kg, po qd treated for 15 days (reference value: 3.56 g); assay type: functional; conditions: time 15 day
[4] = molecular target: Hepatocyte growth factor receptor (Homo sapiens) (UniProt P08581); test: Inhibition of human Met at 0.1 uM by KINOMEscan assay relative to control
[5] = molecular target: Cytoplasmic tyrosine-protein kinase BMX (Homo sapiens) (UniProt P51813); test: Inhibition of human Bmx at 0.1 uM by KINOMEscan assay relative to control
[6] = molecular target: T2, Dual specificity protein kinase TTK (Homo sapiens) (UniProt P33981); test: Inhibition of human Mps1 at 0.1 uM by KINOMEscan assay relative to control
T2 sequence (whole entry): T1 sequence (P33981 whole entry)

[7] = tested on: MCF7; test: Induction of apoptosis in human MCF7 cells assessed as necrotic cells at 5 uM incubated for 48 hrs by Annexin V-FITC/PI staining based flow cytometry (reference value: 0.03 %); assay type: functional
[8] = tested on: ES-2; test: Antiproliferative activity against human ES2 cells assessed as inhibition of cell viability upto 10 uM incubated for 72 hrs by MTT assay; assay type: functional, cell-based
[9] = tested on: Tyrosine-protein kinase ABL1 (Homo sapiens), P00519 [T315I]; test: Inhibition of human Abl T315I mutant at 0.1 uM by KINOMEscan assay relative to control
[10] = tested on: 4T1-Luc; test: Induction of DNA damage in mouse 4T1-Luc cells xenografted in BALB/C mouse assessed as increase in gamma-H2AX level at 30 to 60 mg/kg, po qd treated for 15 days by IHC analysis; assay type: functional, organism-based; conditions: dose 30-60 mg/kg, time 15.0 day
[11] = tested on: 4T1; test: Induction of apoptosis in 4T1 cells assessed as late apoptotic cells at 5 uM incubated for 48 hrs by Annexin V-FITC/PI staining based flow cytometry (reference value: 1.73 %); assay type: functional, Mus musculus
[12] = tested on: HCT-116; test: Antiproliferative activity against human HCT-116 cells assessed as inhibition of cell viability by MTT assay; assay type: functional, cell-based
[13] = tested on: MCF7; test: Induction of DNA damage in human MCF7 cells assessed as increase in gamma-H2AX level incubated for 2 hrs by Western blot analysis; assay type: functional, cell-based; conditions: dose <= 3.0 µM
[14] = Toxicity in BALB/C mouse xenografted with mouse 4T1-Luc cells assessed as body weight change at 30 to 60 mg/kg, po qd treated for 15 days; assay type: organism-based; conditions: in vivo, 360 h, dose 30-60 mg/kg, time 15 day
[15] = tested on: MCF7; test: Induction of apoptosis in human MCF7 cells assessed as late apoptotic cells at 5 uM incubated for 48 hrs by Annexin V-FITC/PI staining based flow cytometry (reference value: 0.63 %); assay type: functional
[16] = molecular target: T2, Dual specificity protein kinase TTK (Homo sapiens); test: Inhibition of Mps1 phosphorylation in mouse 4T1-Luc cells xenografted in BALB/C mouse at 30 to 60 mg/kg, po qd treated for 15 days by IHC analysis; assay type: organism-based; conditions: dose 30-60 mg/kg, time 15.0 day
[17] = tested on: MCF7; test: Induction of apoptosis in human MCF7 cells assessed as late apoptotic cells at 0.5 uM incubated for 48 hrs by Annexin V-FITC/PI staining based flow cytometry (reference value: 0.63 %); assay type: functional
[18] = tested on: MDA-MB-231; test: Antiproliferative activity against human MDA-MB-231 cells assessed as inhibition of cell viability by MTT assay; assay type: functional, cell-based
[19] = molecular target: Tyrosine-protein kinase JAK2 (Homo sapiens) (UniProt O60674); test: Inhibition of human JAK2 at 0.1 uM by KINOMEscan assay relative to control
[20] = tested on: MCF7; test: Antiproliferative activity against human MCF7 cells assessed as inhibition of cell viability incubated for 24 to 72 hrs by MTT assay; assay type: functional, cell-based; conditions: dose <= 10.0 µM, time 24-72 hrs
[21] = tested on: 4T1; test: Induction of apoptosis in 4T1 cells assessed as early apoptotic cells at 5 uM incubated for 48 hrs by Annexin V-FITC/PI staining based flow cytometry (reference value: 0.32 %); assay type: functional, Mus musculus
[22] = tested on: MCF7; test: Induction of apoptosis in human MCF7 cells assessed as early apoptotic cells at 1 uM incubated for 48 hrs by Annexin V-FITC/PI staining based flow cytometry (reference value: 1.19 %); assay type: functional
[23] = Toxicity in BALB/C mouse xenografted with mouse 4T1-Luc cells assessed as histological change in kidneys at 30 to 60 mg/kg, po qd treated for 15 days by H and E staining based analysis; assay type: organism-based; conditions: in vivo, 360 h, dose 30-60 mg/kg, time 15 day
[24] = tested on: 4T1-Luc; test: Antitumor activity against mouse 4T1-Luc cells xenografted in BALB/C mouse assessed as delay in tumor growth at 30 to 60 mg/kg, po qd treated for 15 days; assay type: functional, organism-based; conditions: dose 30-60 mg/kg, time 15.0 day
[25] = tested on: 4T1; test: Induction of apoptosis in 4T1 cells assessed as early apoptotic cells at 1 uM incubated for 48 hrs by Annexin V-FITC/PI staining based flow cytometry (reference value: 0.32 %); assay type: functional, Mus musculus
[26] = molecular target: Proto-oncogene tyrosine-protein kinase Src (Homo sapiens) (UniProt P12931); test: Inhibition of human cSRC at 0.1 uM by KINOMEscan assay relative to control
Chain of Proto-oncogene tyrosine-protein kinase Src (Homo sapiens) (P12931 2-536 limits assumed): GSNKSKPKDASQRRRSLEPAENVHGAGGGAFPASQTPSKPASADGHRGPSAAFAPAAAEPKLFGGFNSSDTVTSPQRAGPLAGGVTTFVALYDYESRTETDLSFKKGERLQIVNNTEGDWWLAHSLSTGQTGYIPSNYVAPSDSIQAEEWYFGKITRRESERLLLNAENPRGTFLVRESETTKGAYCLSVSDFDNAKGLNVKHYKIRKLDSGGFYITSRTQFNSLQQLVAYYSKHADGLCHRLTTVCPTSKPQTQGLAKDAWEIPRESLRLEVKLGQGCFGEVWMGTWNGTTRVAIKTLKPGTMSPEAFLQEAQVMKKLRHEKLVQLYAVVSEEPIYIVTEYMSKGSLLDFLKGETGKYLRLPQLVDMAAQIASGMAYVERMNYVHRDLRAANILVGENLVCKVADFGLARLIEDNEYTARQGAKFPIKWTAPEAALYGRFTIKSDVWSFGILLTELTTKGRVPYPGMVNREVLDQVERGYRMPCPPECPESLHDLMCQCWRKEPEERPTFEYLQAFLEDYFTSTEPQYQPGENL

Chain of Cytoplasmic tyrosine-protein kinase BMX (Homo sapiens) (P51813 whole entry): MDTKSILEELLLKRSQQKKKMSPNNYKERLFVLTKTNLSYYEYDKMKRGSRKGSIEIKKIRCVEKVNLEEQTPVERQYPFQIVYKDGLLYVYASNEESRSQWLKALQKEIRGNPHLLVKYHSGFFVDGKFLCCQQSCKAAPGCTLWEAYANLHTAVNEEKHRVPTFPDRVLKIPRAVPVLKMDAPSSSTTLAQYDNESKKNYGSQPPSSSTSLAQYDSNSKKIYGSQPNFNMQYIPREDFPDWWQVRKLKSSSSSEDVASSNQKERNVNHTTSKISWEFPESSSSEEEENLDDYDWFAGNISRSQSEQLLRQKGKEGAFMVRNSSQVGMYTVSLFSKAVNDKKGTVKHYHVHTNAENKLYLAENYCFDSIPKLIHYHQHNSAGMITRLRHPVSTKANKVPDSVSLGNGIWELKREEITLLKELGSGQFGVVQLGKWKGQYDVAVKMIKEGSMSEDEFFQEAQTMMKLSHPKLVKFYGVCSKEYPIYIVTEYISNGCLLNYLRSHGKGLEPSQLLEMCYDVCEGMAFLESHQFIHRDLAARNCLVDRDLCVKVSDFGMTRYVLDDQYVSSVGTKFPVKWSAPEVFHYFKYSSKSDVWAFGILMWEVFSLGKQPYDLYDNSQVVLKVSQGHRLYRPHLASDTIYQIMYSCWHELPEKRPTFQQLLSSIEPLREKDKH
Chain of Tyrosine-protein kinase JAK2 (Homo sapiens) (O60674 whole entry): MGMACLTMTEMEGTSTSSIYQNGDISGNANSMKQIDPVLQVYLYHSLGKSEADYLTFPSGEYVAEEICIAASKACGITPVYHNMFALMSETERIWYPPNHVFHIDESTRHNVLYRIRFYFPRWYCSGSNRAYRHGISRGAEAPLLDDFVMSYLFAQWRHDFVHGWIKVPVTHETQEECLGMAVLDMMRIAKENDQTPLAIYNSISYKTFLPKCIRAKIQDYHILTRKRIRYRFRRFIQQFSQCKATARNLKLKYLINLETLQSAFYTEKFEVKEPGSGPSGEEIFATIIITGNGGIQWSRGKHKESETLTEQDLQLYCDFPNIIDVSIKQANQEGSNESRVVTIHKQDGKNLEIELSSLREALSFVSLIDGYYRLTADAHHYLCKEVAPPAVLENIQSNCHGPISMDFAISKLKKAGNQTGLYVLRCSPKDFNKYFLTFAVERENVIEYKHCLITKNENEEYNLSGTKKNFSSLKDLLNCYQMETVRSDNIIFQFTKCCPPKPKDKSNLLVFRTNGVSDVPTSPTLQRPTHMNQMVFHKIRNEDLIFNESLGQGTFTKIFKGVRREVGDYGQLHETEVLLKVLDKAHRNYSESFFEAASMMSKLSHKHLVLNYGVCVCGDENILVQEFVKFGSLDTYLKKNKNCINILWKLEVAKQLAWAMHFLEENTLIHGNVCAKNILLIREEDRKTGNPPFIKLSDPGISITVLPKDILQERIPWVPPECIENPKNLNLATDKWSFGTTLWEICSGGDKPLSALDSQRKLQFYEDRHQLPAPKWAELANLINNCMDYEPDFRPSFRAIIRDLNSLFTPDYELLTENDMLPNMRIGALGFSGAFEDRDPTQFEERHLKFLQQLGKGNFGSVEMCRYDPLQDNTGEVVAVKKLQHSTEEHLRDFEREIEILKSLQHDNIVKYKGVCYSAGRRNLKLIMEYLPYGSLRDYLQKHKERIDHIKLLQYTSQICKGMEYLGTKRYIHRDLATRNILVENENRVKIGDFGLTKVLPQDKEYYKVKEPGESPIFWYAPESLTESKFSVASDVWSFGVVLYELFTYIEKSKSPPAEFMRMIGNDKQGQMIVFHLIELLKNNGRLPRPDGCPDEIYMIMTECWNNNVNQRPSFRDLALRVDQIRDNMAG
Chain of Hepatocyte growth factor receptor (Homo sapiens) (P08581 whole entry): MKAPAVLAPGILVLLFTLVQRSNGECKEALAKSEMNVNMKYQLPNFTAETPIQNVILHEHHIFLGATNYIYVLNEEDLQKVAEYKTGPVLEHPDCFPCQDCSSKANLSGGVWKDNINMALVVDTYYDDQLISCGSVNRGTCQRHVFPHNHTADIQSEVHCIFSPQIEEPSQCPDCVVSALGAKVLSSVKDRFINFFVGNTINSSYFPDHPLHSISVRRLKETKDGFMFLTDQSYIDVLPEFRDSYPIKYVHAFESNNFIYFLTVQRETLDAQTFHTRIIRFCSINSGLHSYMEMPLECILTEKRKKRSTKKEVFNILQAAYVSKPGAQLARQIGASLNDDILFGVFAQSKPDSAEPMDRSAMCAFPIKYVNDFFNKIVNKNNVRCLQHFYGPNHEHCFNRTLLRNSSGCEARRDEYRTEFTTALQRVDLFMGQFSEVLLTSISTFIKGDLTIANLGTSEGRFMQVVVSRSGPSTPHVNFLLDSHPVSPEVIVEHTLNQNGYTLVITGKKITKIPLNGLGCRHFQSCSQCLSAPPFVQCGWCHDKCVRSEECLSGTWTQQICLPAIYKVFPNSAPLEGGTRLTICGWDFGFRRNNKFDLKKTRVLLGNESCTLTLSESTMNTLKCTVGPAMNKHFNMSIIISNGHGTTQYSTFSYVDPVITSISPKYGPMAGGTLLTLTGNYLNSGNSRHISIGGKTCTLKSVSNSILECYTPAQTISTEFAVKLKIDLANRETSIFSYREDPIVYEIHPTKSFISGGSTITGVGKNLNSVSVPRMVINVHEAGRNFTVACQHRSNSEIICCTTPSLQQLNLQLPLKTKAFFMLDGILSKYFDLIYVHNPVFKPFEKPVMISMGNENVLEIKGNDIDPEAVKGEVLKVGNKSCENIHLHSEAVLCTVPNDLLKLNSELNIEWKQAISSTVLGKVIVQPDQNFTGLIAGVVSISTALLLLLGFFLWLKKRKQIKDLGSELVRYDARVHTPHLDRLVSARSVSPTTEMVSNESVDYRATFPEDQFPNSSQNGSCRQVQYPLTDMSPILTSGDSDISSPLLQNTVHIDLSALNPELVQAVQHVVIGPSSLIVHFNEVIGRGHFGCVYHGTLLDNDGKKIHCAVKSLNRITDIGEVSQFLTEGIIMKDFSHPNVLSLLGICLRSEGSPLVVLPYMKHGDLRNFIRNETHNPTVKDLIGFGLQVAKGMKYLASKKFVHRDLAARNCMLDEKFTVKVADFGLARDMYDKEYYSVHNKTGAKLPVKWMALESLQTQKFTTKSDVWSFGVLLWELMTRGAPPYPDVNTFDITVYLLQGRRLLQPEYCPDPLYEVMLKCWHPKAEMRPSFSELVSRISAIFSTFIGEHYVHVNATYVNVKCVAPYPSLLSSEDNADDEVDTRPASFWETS

- IC50 [1]: 29 nM
- IC50 [2]: > 3000 nM
- inhibition [4]: 53%
- inhibition [5]: 55%
- inhibition [6]: 87%
- inhibition [9]: 40%
- IC50 [12]: 1060 nM
- inhibition [16]: Active
- IC50 [18]: 2680 nM
- inhibition [19]: 65%
- inhibition [26]: 52%
Compound: CN1CCN(c2ccc(Nc3nc(-n4nc(N)c5ccccc54)c4cc[nH]c4n3)cc2)CC1
- Activity [3]: 1.4 g
- Activity [7]: 0.38%
- inhibition [8]: Active
- Activity [10]: Active
- Activity [11]: 20.66%
- Activity [13]: Dose-Dependent Effect
- Activity [14]: Non-Toxic
- Activity [15]: 17.53%
- Activity [17]: 4.51%
- inhibition [20]: Dose-Dependent Effect
- Activity [21]: 2.71%
- Activity [22]: 6.54%
- Activity [23]: Non-Toxic
- Activity [24]: Active
- Activity [25]: 1.61%
